Structures are written as SMILES. pEC50, pIC50: −log10 of the molar value. Where two headings read alike, the source gives them in different places.

Results on 15 compounds are retold here after doi:10.1101/2024.06.05.597555v1 (biorxiv, 2024).

In one data set the test system is DENV-2. Briefly: microbe, parasite or virus in culture. Conditions: Dengue virus, DENV2, Vero, 48 h, read-out: % inhibition.
The nature of data set [1]: in vitro. Details: species or system DENV2proHeLa (HeLa). Conditions: human, denv2prohela cells.
The target of data set [2] is T1, DENV2proHeLa NS2B-NS3 protease (Dengue virus 2 Thailand/16681/84, UniProt P29990). The data set can be described thus: cell-based. Details: species or system DENV2proHeLa (HeLa). Particulars: HeLa, read-out: % inhibition.
The target in data set [3] is T2, NS2B(H)-NS3pro (DENV-2 NS2B-NS3 protease) (Dengue virus 2 Thailand/NGS-C/1944, UniProt P14340).
T2 sequence (P14340 1394-1433 limits assumed): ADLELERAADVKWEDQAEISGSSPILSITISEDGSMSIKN
T2 sequence (P14340 1476-1660 limits assumed): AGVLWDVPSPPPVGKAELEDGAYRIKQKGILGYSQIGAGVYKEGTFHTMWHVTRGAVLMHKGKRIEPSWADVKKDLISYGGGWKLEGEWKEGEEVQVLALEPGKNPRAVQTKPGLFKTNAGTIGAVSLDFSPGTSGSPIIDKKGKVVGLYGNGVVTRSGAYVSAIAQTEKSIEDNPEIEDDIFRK
Conditions: read-out: IC50 (C7.5-HEPES AMC); AMC substrate, HEPES pH 7.5, CHAPS; inhibitor.

In data set [4] the target is T1, DENV2proHeLa NS2B-NS3 protease. Briefly: cell-based. Details: species or system DENV2proHeLa (HeLa).
Data set [5] deals with T2, NS2B(H)-NS3pro (DENV-2 NS2B-NS3 protease). Briefly: biochemical. Conditions: read-out: % inhibition.
Data set [6] in a line: in vitro. Particulars: human, denv2prohela cells. Details: species or system DENV2proHeLa (HeLa). This is another data set of the same source.
Data set [7] addresses T1, DENV2proHeLa NS2B-NS3 protease. The data set can be described thus: cell-based. Particulars: HeLa, read-out: % inhibition. Details: species or system DENV2proHeLa (HeLa). This is another data set of the same source.
Setting [8] is: read-out: DENV2proHeLa EC50, inhibitor.

T1 sequence (P29990 1476-2093 limits assumed): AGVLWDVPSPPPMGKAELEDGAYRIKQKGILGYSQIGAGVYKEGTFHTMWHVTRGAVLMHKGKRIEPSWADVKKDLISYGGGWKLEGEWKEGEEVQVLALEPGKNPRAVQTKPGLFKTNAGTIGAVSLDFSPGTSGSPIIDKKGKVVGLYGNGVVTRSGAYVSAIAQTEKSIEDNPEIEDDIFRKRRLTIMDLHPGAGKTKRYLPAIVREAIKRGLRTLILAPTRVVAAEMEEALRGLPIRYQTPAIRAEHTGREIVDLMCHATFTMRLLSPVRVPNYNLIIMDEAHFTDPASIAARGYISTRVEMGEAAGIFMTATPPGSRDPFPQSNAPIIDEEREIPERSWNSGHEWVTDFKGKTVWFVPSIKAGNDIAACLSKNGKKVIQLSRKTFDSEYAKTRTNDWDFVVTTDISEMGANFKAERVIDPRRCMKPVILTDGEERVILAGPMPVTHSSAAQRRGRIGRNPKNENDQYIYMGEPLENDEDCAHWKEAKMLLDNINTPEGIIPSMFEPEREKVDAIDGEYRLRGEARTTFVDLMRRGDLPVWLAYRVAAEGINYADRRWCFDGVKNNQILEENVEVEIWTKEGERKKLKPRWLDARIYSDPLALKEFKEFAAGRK
T1 sequence (P29990 1346-1475 partner limits assumed): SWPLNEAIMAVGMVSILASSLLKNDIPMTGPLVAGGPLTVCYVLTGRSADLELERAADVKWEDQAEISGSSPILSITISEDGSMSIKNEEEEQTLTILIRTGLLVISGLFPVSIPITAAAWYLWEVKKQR

As for `COc1ccc(/C=C/C(=O)C(=O)NC(C)(C)C)cc1OC` [GG-80-1], the inhibition at 25 µM in the data set on DENV-2 worked out at 97%.

For `CC(C)(C)NC(=O)C(=O)/C=C/c1c[nH]c2ccccc12` [GG-92], the inhibition at 25 µM in the data set with DENV-2 turned out to be 40%.

For the compound `CC(C)Cc1ccc(C(C)C(=O)N[C@H](C(=O)Nc2cccc(C(N)=O)c2)c2ccc(OCc3ccccc3)cc2)cc1` (stereo partly shown) [compound 3, 3], the CC50 in the data set “in vitro [1]” is above 25 µM. The inhibition at 12.5 µM in data set [2] turned out to be 84%. For the same compound, in data set [3], the pIC50 is 5.10. In data set [4], this compound gave a pEC50 of 5.42.

On to `CC(C(=O)N[C@H](C(=O)Nc1cccc(C(N)=O)c1)c1ccc(OCc2ccccc2)cc1)c1cccc(Oc2ccccc2)c1` (stereo partly shown) [compound 4, 4], for which the CC50 in “in vitro [1]” was above 50 µM. In the data set with DENV-2, the inhibition at 25 µM was found to be 85%. Moreover, the inhibition at 12.5 µM in data set [2] worked out at 86%. The pIC50 in data set [3] is 5.01. The inhibition at 50 µM in data set [5] worked out at 100%. Besides, the pEC50 in data set [4] (setting [8]) is 5.40.

In turn, `NC(=O)c1cccc(NC(=O)[C@@H](NC(=O)c2ccc(-c3ccccc3)o2)c2ccc(OCc3ccccc3)cc2)c1` [compound 5, 5] yielded a half-maximal cytotoxic concentration (CC50) in the data set “in vitro [1]” above 100 µM. Also, in the data set with DENV-2, the inhibition at 25 µM amounted to 96%. Further, in data set [2], the inhibition at 12.5 µM worked out at 85%. In addition, in data set [3], the pIC50 was 5.03. Besides, the inhibition at 50 µM in data set [5] came out at 100%. Further, the pEC50 in data set [4] (setting [8]) is 5.23.

Regarding `CC(C(=O)NCC1(CC(=O)N[C@H](C(=O)Nc2cccc(C(N)=O)c2)c2ccc(OCc3ccccc3)cc2)CCCCC1)c1ccc2c(c1)[nH]c1ccc(Cl)cc12` (stereo partly shown) [compound 6, 6], the CC50 in “in vitro [1]” is above 50 µM. For the same compound, in data set [2], the inhibition at 12.5 µM amounted to 60%. Moreover, in data set [3], the pIC50 is 5.10. The inhibition at 50 µM in data set [5] came out at 99%. In addition, the pEC50 in data set [4] (setting [8]) is 5.54.

The compound `COc1cc(C(=O)N[C@H](C(=O)Nc2cccc(C(N)=O)c2)c2ccc(OCc3ccccc3)cc2)ccc1Oc1ccccc1` [compound 8, 8] yielded a CC50 in the data set “in vitro [1]” above 100 µM. The inhibition at 12.5 µM in data set [2] came to 86%. The pIC50 in data set [3] is 4.92. Moreover, the inhibition at 50 µM in data set [5] was determined as 99%. Besides, the pEC50 in data set [4] was 5.85.

Compound `NC(=O)c1cccc(NC(=O)[C@@H](NC(=O)Cc2ccccc2Nc2c(Cl)cccc2Cl)c2ccc(OCc3ccccc3)cc2)c1` [compound 9, 9] had a CC50 in “in vitro [1]” above 50 µM. For the same compound, in data set [2], the inhibition at 12.5 µM was 60%. Further, the pIC50 in data set [3] is 5.00. For the same compound, the inhibition at 50 µM in data set [5] stood at 99%. In data set [4], this compound showed a pEC50 of 5.07.

As to `COc1ccc2cc([C@H](C)C(=O)N[C@H](C(=O)Nc3cccc(C(N)=O)c3)c3ccc(OCc4ccccc4)cc3)ccc2c1` [compound 10, 10], in the data set “in vitro [1]”, the CC50 is above 100 µM. The inhibition at 12.5 µM in data set [2] amounted to 71%. The pIC50 in data set [3] was 4.92. The pEC50 in data set [4] (setting [8]) was 5.43.

In “in vitro [1]”, `NC(=O)c1cccc(NC(=O)[C@@H](NC(=O)Cc2ccc(Oc3ccccc3)cc2)c2ccc(OCc3ccccc3)cc2)c1` [compound 11, 11] came in with a CC50 above 50 µM. Moreover, the inhibition at 12.5 µM in data set [2] is 78%. For the same compound, the pIC50 in data set [3] is 4.85. In data set [5], the inhibition at 50 µM worked out at 99%. In data set [4], this compound showed a pEC50 of 5.16.

Take `NC(=O)c1cccc(NC(=O)C(CC2CCCCC2)NC(=O)c2ccc(Oc3ccccc3)cc2)c1` (stereo not shown) [compound 64, 64]: the cytotoxic concentration (CC50) in the data set “in vitro [6]” turned out to be 40 µM. In data set [7], the inhibition at 12.5 µM turned out to be 82%.

With `NC(=O)c1cccc(NC(=O)C(CCc2ccccc2)NC(=O)c2ccc(Oc3ccccc3)cc2)c1` (stereo not shown) [compound 66, 66], the CC50 in the data set “in vitro [6]” was above 50 µM. In data set [7], the inhibition at 12.5 µM was found to be 67%.

`NC(=O)c1cccc(NC(=O)C(Cc2ccccc2)NC(=O)c2ccc(Oc3ccccc3)cc2)c1` (stereo not shown) [compound 70, 70] returned a CC50 in the data set “in vitro [6]” above 50 µM. Besides, in data set [7], the inhibition at 12.5 µM is 55%.

In turn, `NC(=O)c1cccc(NC(=O)C(CCC(=O)Nc2ccccc2)NC(=O)c2ccc(Oc3ccccc3)cc2)c1` (stereo not shown) [compound 71, 71] yielded a CC50 in “in vitro [6]” above 50 µM. Further, the inhibition at 12.5 µM in data set [7] was determined as 45%.

In turn, `CC(C)CC(NC(=O)c1ccc(Oc2ccccc2)cc1)C(=O)Nc1cccc(C(N)=O)c1` (stereo not shown) [compound 73, 73] registered a CC50 in “in vitro [6]” of at least 50 µM. Besides, the inhibition at 12.5 µM in data set [7] came out at 36%.
